# Measured values taken from US10159678B2, “Methods to decrease susceptibility to asthmatic bronchoconstriction” (Cornell University, priority 2012, dated 2018).
# Experiments:
# A549 cells = test: Sphinganine in cell lysates by LC-MS/MS after GlyH-101; format: cell-based; details: GlyH-101 (50 μM), A549 lung epithelial cell line; FIG. 6B
# Method: (§1) GlyH-101 (50 μM) was added to culture media of cystic fibrosis tracheal cells, non-cystic fibrosis tracheal cells or A549 cells (a lung epithelial cell line).
# (§2) Sphinganine, an intermediate of de-novo sphingolipid synthesis, was quantified in cell lysates by LC-MS/MS.
# [1] = system: non-cystic fibrosis tracheal cells; test: as above; format: cell-based; details: GlyH-101 (50 μM) in culture media, non-CF airway epithelial cells; FIG. 6A
# Method: as §1, §2
# CFTR [2] = target: T1, CFTR (Mus musculus, UniProt P26361); test: Myograph contractile response of bronchial rings from Sptlc2+/- or Sptlc2+/+ mice with GlyH-101 in bath; details: 2 hr in bath, methacholine (10 mM), FIG. 6C
# T1 construct: administered directly to the respiratory tract; from tissue; host or cells: live Sptlc2+/+ and Sptlc2+/- mice (airways)
# Method: In another experiment, bronchial rings were isolated from Sptlc2^+/− or Sptlc2^+/+ mice and mounted in a myograph. CFTR inhibitor GlyH-101 or the solvent DMSO (control) were added to the bath solution. After 2 hr contractile responses of the rings stimulated with methacholine (10 mM) were determined.
# CFTR [3] = target: T1, CFTR; test: Airway resistance to methacholine after intranasal GlyH-101 in Sptlc2+/+ and Sptlc2+/- mice; format: in vivo; details: GlyH-101 (5 μg) intranasally, after 3 h
# Method: Mice were anaesthetized with pentobarbital (100 mg/kg; American Pharmaceutical Partners, Los Angeles, Calif.), tracheostomized and mechanically ventilated at a rate of 150 breaths/min, a tidal volume of 10 ml/kg and positive end-expiratory pressure of 2-3 cm H2O using a computer-controlled animal ventilator (Sireq, Montreal, Canada). Three perturbations were used to assess baseline respiratory mechanics and the effects were analyzed using the Flexivent software (Scireq): • (1) Static compliance was determined using the Salazar-Knowles equation (Colebatch et al., J Appl Physiol 46:387-393 (1971) to the plateau pressure measurements obtained between total lung capacity and functional residual capacity; • (2) Single-frequency forced oscillations were applied to determine tissue resistance (R), elastance (E) and dynamic compliance (C) using a single compartment model; • (3) Broadband forced oscillations were applied to determine Newtonian (airway) resistance (Rn), tissue damping (G) and tissue elastance using a constant phase model. Rn and G were also assessed following increasing doses of methacholine (3.125, 12.5 and 50 mg/ml). […]
# [4] = system: cystic fibrosis tracheal cells; test: Sphinganine in cell lysates by LC-MS/MS after GlyH-101; format: cell-based, human; details: GlyH-101 (50 μM) in culture medium, cells from the trachea of cystic fibrosis patients; FIG. 6A
# Method: as §1, §2
# non-malignant cells = non-malignant cells (Li et al. 2009; O'Donnell et al. 2002); cited from earlier work
# cancer cells = cancer cells (Wang et al. 2001); cited from earlier work
# [5] = system: Human bronchial epithelial cells; test: Viability of human bronchial epithelial cells; format: cell-based; details: myriocin (1 μM) or fenretinide (10 μM) for 3 hours
# Method: (§3) Human bronchial epithelial cells were incubated with either myriocin (1 μM) or fenretinide (10 μM) for 3 hours. The amounts of sphingolipids were then quantified by mass spectrometry.
# The viability of the cells was not affected by fenretinide or myriocin. Fenretinide can induce cell death at doses as low as 5 μM in cancer cells (Wang et al. Cancer Res 61:5102-5 (2001)), but toxicity is usually not seen in doses up to 12 μM in non-malignant cells (Li et al., Cancer Letters 284:175-81 (2009); O'Donnell et al., Leukemia 16:902-10 (2002)). Accordingly, low doses of fenretinide may effectively alleviate bronchial hyper reactivity.
# [6] = system: Human bronchial epithelial cells; test: Sphingolipids by mass spectrometry in human bronchial epithelial cells; format: cell-based; details: fenretinide (10 μM) for 3 hours; FIG. 7
# Method: FIG. 7 illustrates that fenretinide increases metabolites of de-novo sphingolipid synthesis. Human bronchial epithelial cells were incubated with myriocin (1 μM) or fenretinide (10 μM) for 3 h in serum free medium supplemented with fatty acid-free bovine serum albumin (0.1%). Cell lysates were analyzed by mass spectrometry. The sums (mean+SEM) of all dihydroceramides are shown as a reflection of the activity of the de-novo sphingolipid synthesis pathway.
# as §3
# T1 sequence (P26361 whole entry): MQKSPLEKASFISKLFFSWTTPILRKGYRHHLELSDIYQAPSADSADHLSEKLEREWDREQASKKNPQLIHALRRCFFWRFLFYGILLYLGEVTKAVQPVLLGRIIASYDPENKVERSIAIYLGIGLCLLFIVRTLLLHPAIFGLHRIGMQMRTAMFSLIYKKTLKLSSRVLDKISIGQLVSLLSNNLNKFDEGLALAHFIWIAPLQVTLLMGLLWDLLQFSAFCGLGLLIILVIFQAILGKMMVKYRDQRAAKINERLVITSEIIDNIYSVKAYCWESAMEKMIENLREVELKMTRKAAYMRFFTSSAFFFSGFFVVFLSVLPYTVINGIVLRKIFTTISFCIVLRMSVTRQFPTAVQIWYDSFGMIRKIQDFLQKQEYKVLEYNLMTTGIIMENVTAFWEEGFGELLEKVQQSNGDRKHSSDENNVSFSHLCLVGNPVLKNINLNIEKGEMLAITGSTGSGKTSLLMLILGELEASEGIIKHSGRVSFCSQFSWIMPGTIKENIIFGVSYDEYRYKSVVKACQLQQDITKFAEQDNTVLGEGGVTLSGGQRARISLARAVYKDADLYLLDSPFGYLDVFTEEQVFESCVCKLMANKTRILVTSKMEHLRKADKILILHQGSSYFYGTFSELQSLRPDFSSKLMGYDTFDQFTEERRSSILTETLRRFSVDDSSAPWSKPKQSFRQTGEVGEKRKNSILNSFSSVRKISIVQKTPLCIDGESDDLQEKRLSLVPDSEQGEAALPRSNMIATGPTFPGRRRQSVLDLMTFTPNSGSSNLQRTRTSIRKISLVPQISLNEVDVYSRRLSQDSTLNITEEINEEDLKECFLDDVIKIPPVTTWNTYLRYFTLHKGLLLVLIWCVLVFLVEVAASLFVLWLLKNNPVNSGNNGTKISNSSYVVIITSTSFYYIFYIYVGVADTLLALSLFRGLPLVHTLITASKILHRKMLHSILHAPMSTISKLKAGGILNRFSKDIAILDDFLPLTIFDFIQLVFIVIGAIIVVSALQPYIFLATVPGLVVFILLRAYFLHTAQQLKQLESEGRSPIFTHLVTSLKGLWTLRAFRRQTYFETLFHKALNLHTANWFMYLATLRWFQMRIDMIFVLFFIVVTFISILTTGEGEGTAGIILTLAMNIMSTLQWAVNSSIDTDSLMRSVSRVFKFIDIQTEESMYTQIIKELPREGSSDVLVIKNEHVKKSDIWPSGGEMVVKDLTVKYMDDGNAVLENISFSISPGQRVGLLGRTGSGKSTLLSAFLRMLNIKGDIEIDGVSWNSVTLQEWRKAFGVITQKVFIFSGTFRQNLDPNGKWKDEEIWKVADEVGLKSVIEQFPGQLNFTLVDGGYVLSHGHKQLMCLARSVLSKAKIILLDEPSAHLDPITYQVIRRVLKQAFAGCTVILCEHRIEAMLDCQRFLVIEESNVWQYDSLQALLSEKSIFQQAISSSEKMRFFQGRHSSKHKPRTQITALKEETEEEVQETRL
Structure (SMILES),sphinganine level (A549 cells),sphinganine level [1],contractile response of bronchial rings upon methacholine (CFTR [2]; rings from Spt-deficient mice),contractile response of bronchial rings (CFTR [2]; rings from wild type mice (Sptlc+/+)),"airway resistance after methacholine (CFTR [3]; Sptlc2+/- mice, FIG. 6E)","bronchial reactivity after methacholine (CFTR [3]; control Sptlc2+/+ mice, FIG. 6D)",sphinganine level [4],doses at which toxicity is usually not seen (non-malignant cells),doses that can induce cell death (cancer cells) [µM],viability of the cells [5],sum of all dihydroceramides [6]
"O=C(CNc1ccc2ccccc2c1)N/N=C/c1cc(Br)c(O)c(Br)c1O [GlyH-101, (Naphthalen-2-ylamino)-acetic acid (3,5-dibromo-2,4,-dihydroxybenzylidene)-hydrazide]",increases,increases,decreased,increased contractile response,alleviated,no effect,not altered,–,–,–,–
"CC1=C(/C=C/C(C)=C/C=C/C(C)=C/C(=O)Nc2ccc(O)cc2)C(C)(C)CCC1 [fenretinide, N-(4-hydroxyphenyl)retinamide]",–,–,–,–,–,–,–,up to 12 μM,≥ 5,not affected,increased
